One compound from paper PMC10333285, “Structural basis of ligand activation and inhibition in a mammalian TRPV4 ion channel” (Cell Discovery, 2023) can be followed below.

The target in test [1] is TRPV4 (mTRPV4) (Mus musculus, UniProt Q9EPK8, D682A). Nature of the test: patch-clamp inhibition of GSK101-activated mutant channel. It is filed as cell-based.
Test [2] deals with TRPV4 (mTRPV4) (Mus musculus, UniProt Q9EPK8). As to the kind of experiment: cryo-EM structure with GSK101 also bound ([…] Å); patch-clamp inhibition IC50. Format: cell-based. In general terms: In patch-clamp work, channel activity is measured electrically.

Structures are written as SMILES.

TRPV4 (mTRPV4) (Mus musculus, UniProt Q9EPK8), sequence (Q9EPK8 whole entry): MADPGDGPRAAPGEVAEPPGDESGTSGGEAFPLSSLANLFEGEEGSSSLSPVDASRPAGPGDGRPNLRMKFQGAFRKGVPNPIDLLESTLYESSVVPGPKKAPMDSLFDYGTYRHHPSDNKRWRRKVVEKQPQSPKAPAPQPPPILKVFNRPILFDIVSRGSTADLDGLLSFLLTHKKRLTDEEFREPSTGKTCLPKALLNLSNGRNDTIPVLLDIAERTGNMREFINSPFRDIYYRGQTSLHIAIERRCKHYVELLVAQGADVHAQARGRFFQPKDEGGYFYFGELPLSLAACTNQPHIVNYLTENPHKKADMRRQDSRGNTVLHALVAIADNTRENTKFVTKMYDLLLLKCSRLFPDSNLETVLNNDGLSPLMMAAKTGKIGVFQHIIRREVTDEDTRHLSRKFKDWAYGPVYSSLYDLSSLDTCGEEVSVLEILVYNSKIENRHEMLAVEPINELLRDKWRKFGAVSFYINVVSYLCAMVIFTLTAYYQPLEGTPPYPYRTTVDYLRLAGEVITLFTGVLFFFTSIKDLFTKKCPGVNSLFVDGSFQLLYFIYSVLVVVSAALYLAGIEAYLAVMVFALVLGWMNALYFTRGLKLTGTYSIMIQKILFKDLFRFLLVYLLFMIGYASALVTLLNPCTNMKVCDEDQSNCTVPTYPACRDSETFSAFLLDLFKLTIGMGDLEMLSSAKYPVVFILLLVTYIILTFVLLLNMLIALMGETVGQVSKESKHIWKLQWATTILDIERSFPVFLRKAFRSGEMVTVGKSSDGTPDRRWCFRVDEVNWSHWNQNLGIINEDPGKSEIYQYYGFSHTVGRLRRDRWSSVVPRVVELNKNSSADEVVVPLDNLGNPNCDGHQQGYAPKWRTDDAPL
TRPV4 (mTRPV4) (Mus musculus, UniProt Q9EPK8, D682A), sequence (Q9EPK8 whole entry D682A): as the sequence (Q9EPK8 whole entry) above, with D682A counted along it

In the case of `Cl.Cl.Cl.Cl.Cl.Cl.N.N.N.N.N.N.N.N.N.N.N.N.N.N.[O-2].[O-2].[Ru+3].[Ru+3].[Ru+4]` [ruthenium red], the IC50 (usually the midpoint of a concentration-inhibition curve) against TRPV4 (mTRPV4) [1] worked out at 15.6 ± 3.2 µM; on TRPV4 (mTRPV4) [2], 0.3 ± 0.1 µM.
